According to patent publication US10494343B2, “Organic compound, near-infrared fluorescent constant medium containing same, and method for nano-granulating constant medium” (COLLEGE OF MEDICINE POCHON CHA UNIV. INDUSTRY—ACADEMIC …, priority 2015, dated 2019):

Experiment: Absorption/emission wavelength of the compounds (Table 1)
Assay type: physicochemical
Conditions: DMSO

Absorption wavelength [nm] | Emission wavelength [nm] | Compound
856 | 905 | 3-ethyl-2-((E)-2-((E)-3-((E)-2-(3-ethyl-7-methoxy-1,1-dimethyl-1H-benzo[e]indol-2(3H)-ylidene)ethylidene)-2-(4-(2-isothiocyantoethylcarbamoyl)phenylthio)-5-(1-methoxy-2-methyl-1-oxopropan-2-yl)cyclohex-1-enyl) vinyl)-7-methoxy-1,1-dimethyl-1H-benzo[e]indolium iodide [Compound J]
857 | 896 | CCN1/C(=C/C=C2\CC(C(C)(C)C)CC(/C=C/C3=[N+](CC)c4ccc5cc(OC)ccc5c4C3(C)C)=C2Sc2ccc(C(=O)NCCN)cc2)C(C)(C)c2c1ccc1cc(OC)ccc21.[I-] (stereo not shown) [Compound L, 2-((E)-2-((E)-2-(4-(2-aminoethylcarbamoyl)phenylthio)-5-tert-butyl-3-((E)-2-(3-ethyl-7-methoxy-1,1-dimethyl-1H-benzo[e]indol-2(3H)-ylidene)ethylidene)cyclohex-1-enyl)vinyl)-3-ethyl-7-methoxy-1,1-dimethyl-1H-benzo[e]indolium iodide]
857 | 889 | CCN1/C(=C/C=C2\CC(C(C)(C)C(=O)OC)CC(/C=C/C3=[N+](CC)c4ccc5cc(OC)ccc5c4C3(C)C)=C2Sc2ccc(C(=O)NCCN)cc2)C(C)(C)c2c1ccc1cc(OC)ccc21.[I-] (stereo not shown) [Compound I, 2-((E)-2-((E)-2-(4-(2-aminoethylcarbamoyl)phenylthio)-3-((E)-2-(3-ethyl-7-methoxy-1,1-dimethyl-1H-benzo[e]indol-2(3H)-ylidene)ethylidene)-5-(1-methoxy-2-methyl-1-oxopropan-2-yl)cyclohex-1-enyl)vinyl)-3-ethyl-7-methoxy-1,1-dimethyl-1H-benzo[e]indolium iodide]
833 | 861 | CCN1/C(=C/C=C2\CC(C(C)(C)C(=O)OC)CC(/C=C/C3=[N+](CC)c4ccc5cc(S(=O)(=O)O)ccc5c4C3(C)C)=C2Cl)C(C)(C)c2c1ccc1cc(S(=O)(=O)O)ccc21 (stereo not shown) [Compound D, 2-((E)-2-((E)-2-chloro-3-((E)-2-(3-ethyl-1,1-dimethyl-7-sulfo-1H-benzo[e]indol-2(3H)-ylidene)ethylidene)-5-(1-methoxy-2-methyl-1-oxopropan-2-yl)cyclohex-1-enyl)vinyl)-3-ethyl-1,1-dimethyl-1H-benzo[e]indolium-7-sulfonate]
833 | 865 | CCN1/C(=C/C=C2\CC(c3ccc(C(=O)OC)cc3)CC(/C=C/C3=[N+](CC)c4ccc5cc(S(=O)(=O)O)ccc5c4C3(C)C)=C2Cl)C(C)(C)c2c1ccc1cc(S(=O)(=O)O)ccc21 (stereo not shown) [Compound A, 2-((E)-2-((E)-2-chloro-3-((E)-2-(3-ethyl-1,1-dimethyl-7-sulfo-1H-benzo[e]indo-1-2(3H)-ylidene)ethylidene)-5-(4-(methoxycarbonyl)phenyl)cyclohex-1-enyl)vinyl)-3-ethyl-1,1-dimethyl-1H-benzo[e]indolium-7-sulfonate]
857 | 900 | CCN1/C(=C/C=C2\CC(C(C)(C)C(=O)OC)CC(/C=C/C3=[N+](CC)c4ccc5cc(OC)ccc5c4C3(C)C)=C2Sc2ccc(C(=O)[O-])cc2)C(C)(C)c2c1ccc1cc(OC)ccc21 (stereo not shown) [Compound H, 4-((E)-6-((E)-2-(3-ethyl-7-methoxy-1,1-dimethyl-1H-benzo[e]indol-2(3H)-ylidene)ethylidene)-2-((E)-2-(3-ethyl-7-methoxy-1,1-dimethyl-1H-benzo[e]indolium-2-yl)vinyl)-4-(1-methoxy-2-methyl-1-oxopropan-2-yl)cyclohex-1-enylthio)benzoate]
849 | 883 | CCN1/C(=C/C=C2\CC(C(C)(C)C(=O)OC)CC(/C=C/C3=[N+](CC)c4ccc5cc(S(=O)(=O)[O-])ccc5c4C3(C)C)=C2Sc2ccc(C(=O)O)cc2)C(C)(C)c2c1ccc1cc(S(=O)(=O)O)ccc21 (stereo not shown) [Compound G, 2-((E)-2-((E)-2-(4-carboxyphenylthio)-3-((E)-2-(3-ethyl-1,1-dimethyl-7-sulfo-1H-benzo[e]indol-2(3H)-ylidene)ethylidene)-5-(1-methoxy-2-methyl-1-oxopropan-2-yl)cyclohex-1-enyl)vinyl)-3-ethyl-1,1-dimethyl-1H-benzo[e]indolium-7-sulfonate]
843 | 876 | CCN1/C(=C/C=C2\CC(c3ccc(C(=O)OC)cc3)CC(/C=C/C3=[N+](CC)c4ccc5cc(OC)ccc5c4C3(C)C)=C2Cl)C(C)(C)c2c1ccc1cc(OC)ccc21.[I-] (stereo not shown) [C, 2-((E)-2-((E)-2-chloro-3-((E)-2-(3-ethyl-7-methoxy-1,1-dimethyl-1H-benzo[e]indol-2(3H)-ylidene)ethylidene)-5-(4-(methoxycarbonyl)phenyl)cyclohex-1-enyl)vinyl)-3-ethyl-7-methoxy-1,1-dimethyl-1H-benzo[e]indolium iodide]
843 | 881 | CCN1/C(=C/C=C2\CC(C(C)(C)C(=O)OC)CC(/C=C/C3=[N+](CC)c4ccc5cc(OC)ccc5c4C3(C)C)=C2Cl)C(C)(C)c2c1ccc1cc(OC)ccc21.[I-] (stereo not shown) [Compound F, 2-((E)-2-((E)-2-chloro-3-((E)-2-(3-ethyl-7-methoxy-1,1-dimethyl-1H-benzo[e]indol-2(3H)-ylidene)ethylidene)-5-(1-methoxy-2-methyl-1-oxopropan-2-yl)cyclohex-1-enyl)vinyl)-3-ethyl-7-methoxy-1,1-dimethyl-1H-benzo[e]indolium iodide]
831 | 863 | CCN1/C(=C/C=C2\CC(c3ccc(C(=O)OC)cc3)CC(/C=C/C3=[N+](CC)c4ccc5cc(Br)ccc5c4C3(C)C)=C2Cl)C(C)(C)c2c1ccc1cc(Br)ccc21.[I-] (stereo not shown) [Compound B, 7-bromo-2-((E)-2-((E)-3-((E)-2-(7-bromo-3-ethyl-1,1-dimethyl-1H-benzo[e]indol-2(3H)-ylidene)ethylidene)-2-chloro-5-(4-(methoxycarbonyl)phenyl)cyclohex-1-enyl)vinyl)-3-ethyl-1,1-dimethyl-1H-benzo[e]indolium iodide]
857 | 901 | CCN1/C(=C/C=C2\CCCC(/C=C/C3=[N+](CC)c4ccc5cc(OC)ccc5c4C3(C)C)=C2Sc2ccc(C(=O)NCCN)cc2)C(C)(C)c2c1ccc1cc(OC)ccc21.[I-] [Compound K, 2-((E)-2-((E)-2-(4-(2-aminoethylcarbamoyl)phenylthio)-3-((E)-2-(3-ethyl-7-methoxy-1,1-dimethyl-1H-benzo[e]indol-2(3H)-ylidene)ethylidene)cyclohex-1-enyl)vinyl)-3-ethyl-7-methoxy-1,1-dimethyl-1H-benzo[e]indolium iodide]
833 | 865 | CCN1/C(=C/C=C2\CC(C(C)(C)C(=O)OC)CC(/C=C/C3=[N+](CC)c4ccc5cc(Br)ccc5c4C3(C)C)=C2Cl)C(C)(C)c2c1ccc1cc(Br)ccc21.[I-] (stereo not shown) [Compound E, 7-bromo-2-((E)-2-((E)-3-((E)-2-(7-bromo-3-ethyl-1,1-dimethyl-1H-benzo[e]indol-2(3H)-ylidene)ethylidene)-2-chloro-5-(1-methoxy-2-methyl-1-oxopropan-2-yl)cyclohex-1-enyl)vinyl)-3-ethyl-1,1-dimethyl-1H-benzo[e]indolium iodide]

Experiment: Test Example 1: optical properties of contrast medium according to Preparation Example 2
Assay type: physicochemical
Parameters: unit not given here
Conditions: conventional contrast medium, solvent not stated
Experimental: Contrast media were prepared by dissolving compound H per se according to Example 8 in various organic solvents without manufacturing core-shell nanoparticles.
Test Example 1—Evaluation on Optical Properties of Contrast Medium According to Preparation Example 2
The absorption intensity, absorption wavelength, emission wavelength, and quantum yield (ϕf) of the contrast media prepared in Preparation Example 2 are shown in the Table 2.

quantum efficiency (χf) | Compound
2.58 | CC1(C)C(/C=C/C=C/C=C/C=C2\N(CCCCS(=O)(=O)O)c3ccc4ccccc4c3C2(C)C)=[N+](CCCCS(=O)(=O)[O-])c2ccc3ccccc3c21 [indocyanine green]
